Results as given in patent US20060141078A1, “Composition comprising a rice protein hydrolysate and an agent for increasing glycosaminoglycan synthesis” (L'OREAL, priority 2004, published 2006).

Test system: adipocytes
Assay: Hydrolysis of adipocyte triglycerides: release of non-esterified fatty acids (NEFA) into the medium (lipolysis)
Type: cell-based
Conditions: for % activity vs Control: untreated control = 100
Description: The adipocytes were isolated from an abdominal plasty and then incubated in the presence of collagenase, washed and taken up in test medium.
We then added the adipocyte suspension and the mixtures were incubated at 37° C. The NEFAs were assayed in the fractions of sub-adipocyte medium, after decantation. The assay was performed using an NEFA-C kit according to the manufacturer's instructions.
Two controls (a positive and a negative) of absence of interference of the product with the NEFA assay were performed.

SMILES	NEFA (Example 1, 1 μM) [µM]	% activity vs Control (Example 1, 1 μM) [%]	NEFA (Example 2, 1 μM) [µM]	% activity vs Control (Example 2, 1 μM) [%]	NEFA (Example 1, 1 mM) [µM]	% activity vs Control (Example 1, 1 mM) [%]	NEFA (Example 2, 1 mM) [µM]	% activity vs Control (Example 2, 1 mM) [%]
CC(C)NCC(O)c1ccc(O)c(O)c1 (centres unmarked) [Isoproterenol, isoproterenol]	472.3	600	613.3	1849	–	–	–	–
Cn1c(=O)c2[nH]cnc2n(C)c1=O [Theophylline, theophylline]	–	–	–	–	496.3	630	626.3	1888
